Measured values reported in ChEMBL document CHEMBL5214883, “Comprehensive review for anticancer hybridized multitargeting HDAC inhibitors” (Eur J Med Chem, 2021).

Columns and labels:
[1] = Inhibition of PDGFR (unknown origin); parameters: species or system Homo sapiens
[2] = target: T1, Protein deacetylase HDAC6 (Homo sapiens, UniProt Q9UBN7); experiment: Inhibition of HDAC6 (unknown origin)
T1 sequence (Q9UBN7 whole entry): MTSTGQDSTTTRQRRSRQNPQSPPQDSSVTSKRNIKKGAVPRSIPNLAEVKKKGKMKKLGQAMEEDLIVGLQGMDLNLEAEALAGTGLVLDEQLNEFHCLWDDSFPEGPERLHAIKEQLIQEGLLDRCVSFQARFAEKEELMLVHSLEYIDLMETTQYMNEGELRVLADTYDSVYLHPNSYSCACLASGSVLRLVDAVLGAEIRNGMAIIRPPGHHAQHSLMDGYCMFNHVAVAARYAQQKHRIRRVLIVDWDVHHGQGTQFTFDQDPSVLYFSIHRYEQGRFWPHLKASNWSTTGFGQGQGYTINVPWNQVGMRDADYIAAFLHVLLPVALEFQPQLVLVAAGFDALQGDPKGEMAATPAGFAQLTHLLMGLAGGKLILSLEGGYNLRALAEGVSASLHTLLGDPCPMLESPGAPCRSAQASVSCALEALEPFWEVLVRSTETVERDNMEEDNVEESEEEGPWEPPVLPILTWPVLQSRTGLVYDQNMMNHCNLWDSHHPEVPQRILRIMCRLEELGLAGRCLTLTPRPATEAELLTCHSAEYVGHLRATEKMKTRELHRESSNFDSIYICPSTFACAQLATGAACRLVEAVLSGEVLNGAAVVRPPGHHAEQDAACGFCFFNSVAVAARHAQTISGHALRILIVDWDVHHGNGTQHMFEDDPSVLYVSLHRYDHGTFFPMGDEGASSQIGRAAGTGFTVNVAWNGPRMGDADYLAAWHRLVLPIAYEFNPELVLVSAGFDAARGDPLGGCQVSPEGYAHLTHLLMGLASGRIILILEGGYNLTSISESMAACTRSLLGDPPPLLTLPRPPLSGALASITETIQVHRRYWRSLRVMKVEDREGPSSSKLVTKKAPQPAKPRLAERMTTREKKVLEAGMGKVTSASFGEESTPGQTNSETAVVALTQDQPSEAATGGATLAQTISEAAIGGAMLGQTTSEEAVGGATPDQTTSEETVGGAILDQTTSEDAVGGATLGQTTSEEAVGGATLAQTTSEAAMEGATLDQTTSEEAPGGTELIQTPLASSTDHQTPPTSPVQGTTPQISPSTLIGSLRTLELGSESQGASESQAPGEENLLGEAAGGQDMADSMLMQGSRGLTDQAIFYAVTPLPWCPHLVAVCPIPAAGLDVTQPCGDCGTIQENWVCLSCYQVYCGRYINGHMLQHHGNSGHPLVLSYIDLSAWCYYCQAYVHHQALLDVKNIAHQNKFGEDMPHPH

[3] = Cytotoxicity against African green monkey Vero cells; conditions: African green monkey (Chlorocebus sabaeus)
RWPE-1 = experiment: Cytotoxicity against human RWPE-1 cells; assay type: functional, cell-based
MDA-MB-231 = experiment: Cytotoxicity against human MDA-MB-231 cells; assay type: functional, cell-based
PC-3 = experiment: Cytotoxicity against human PC-3 cells; assay type: functional, cell-based
MCF7 [4] = experiment: Cytotoxicity against human MCF7 cells; assay type: functional, cell-based
[5] = Cytotoxicity against human WM983B cells; assay type: functional, cell-based
Tubulin = experiment: Inhibition of tubulin polymerization (unknown origin) incubated for 15 mins in presence of GTP by fluorescence-based tubulin polymerization assay kit; assay type: protein-complex assay, Homo sapiens
Histone deacetylase 2 = Histone deacetylase 2 (Homo sapiens, UniProt Q92769); experiment: Inhibition of human HDAC2 incubated for 30 mins by SpectraMax M2 microplate reader analysis
Histone deacetylase 1 [6] = target: T2, Histone deacetylase 1 (Homo sapiens, UniProt Q13547); experiment: Inhibition of HDAC1 in human HeLa cell nuclear extract using Bos-Lys(acetyl)-AMC as substrate preincubated for 5 mins followed by substrate addition incubated for 30 mins; assay type: cell-free
[7] = tested on: Epidermal growth factor receptor (Homo sapiens), P00533 [UNDEFINED MUTATION]; experiment: Inhibition of EGFR T790M (unknown origin) at 1 uM incubated for 40 mins in presence of ATP relative to control
[8] = target: T3, Epidermal growth factor receptor (Homo sapiens, UniProt P00533); experiment: Inhibition of EGFR wildtype (unknown origin) incubated for 40 mins in presence of ATP
[9] = target: Epidermal growth factor receptor (Homo sapiens, UniProt P00533, T790M); experiment: Inhibition of EGFR T790M (unknown origin) incubated for 40 mins in presence of ATP
MCF7 [10] = experiment: Cytotoxicity against human MCF7 cells by trypan blue staining method; assay type: functional, cell-based
HEK-293T = experiment: Cytotoxicity against human 293T cells by trypan blue staining method; assay type: functional; conditions: read-out: LC50 (the source's name)
Histone deacetylase 1 [11] = target: T2, Histone deacetylase 1; experiment: Inhibition of HDAC1 (unknown origin) relative to control; conditions: concentration not given here
HaCaT = experiment: Cytotoxicity against human HaCat cells by trypan blue staining method; assay type: functional; conditions: read-out: LC50 (the source's name)
Jurkat = experiment: Cytotoxicity against human Jurkat cells by trypan blue staining method; assay type: functional; conditions: read-out: LC50 (the source's name)
L1210 = experiment: Cytotoxicity against mouse L1210 cells by trypan blue staining method; assay type: functional; conditions: read-out: LC50 (the source's name)
Histone deacetylase 11 = Histone deacetylase 11 (Homo sapiens, UniProt Q96DB2); experiment: Inhibition of HDAC11 (unknown origin)
Histone deacetylase 8 = Histone deacetylase 8 (Homo sapiens, UniProt Q9BY41); experiment: Inhibition of HDAC8 (unknown origin)
Histone deacetylase 3 = Histone deacetylase 3 (Homo sapiens, UniProt O15379); experiment: Inhibition of HDAC3 (unknown origin)
[12] = target: Polyamine deacetylase HDAC10 (Homo sapiens, UniProt Q969S8); experiment: Inhibition of HDAC10 (unknown origin)
Histone deacetylase 1 [13] = target: T2, Histone deacetylase 1; experiment: Inhibition of HDAC1 (unknown origin)
[14] = target: Cyclin-dependent kinase 4 (Homo sapiens, UniProt P11802); experiment: Inhibition of Cdk4 (unknown origin)
[15] = Antiproliferative activity against breast cancer cell line (unknown origin)
[16] = Antiproliferative activity against non-small cell lung cancer cell line (unknown origin)
CAPAN-1 = experiment: Antitumor activity against human CAPAN-1 cells xenografted in mouse assessed tumor growth inhibition at 20 mg/kg, ip, bid relative to control; assay type: functional; conditions: read-out: TGI
[17] = target: T3, Epidermal growth factor receptor; experiment: Inhibition of EGFR (unknown origin)
[18] = target: Receptor tyrosine-protein kinase erbB-2 (Homo sapiens, UniProt P04626); experiment: Inhibition of HER2 (unknown origin)
Sequence of Receptor tyrosine-protein kinase erbB-2 (P04626 whole entry): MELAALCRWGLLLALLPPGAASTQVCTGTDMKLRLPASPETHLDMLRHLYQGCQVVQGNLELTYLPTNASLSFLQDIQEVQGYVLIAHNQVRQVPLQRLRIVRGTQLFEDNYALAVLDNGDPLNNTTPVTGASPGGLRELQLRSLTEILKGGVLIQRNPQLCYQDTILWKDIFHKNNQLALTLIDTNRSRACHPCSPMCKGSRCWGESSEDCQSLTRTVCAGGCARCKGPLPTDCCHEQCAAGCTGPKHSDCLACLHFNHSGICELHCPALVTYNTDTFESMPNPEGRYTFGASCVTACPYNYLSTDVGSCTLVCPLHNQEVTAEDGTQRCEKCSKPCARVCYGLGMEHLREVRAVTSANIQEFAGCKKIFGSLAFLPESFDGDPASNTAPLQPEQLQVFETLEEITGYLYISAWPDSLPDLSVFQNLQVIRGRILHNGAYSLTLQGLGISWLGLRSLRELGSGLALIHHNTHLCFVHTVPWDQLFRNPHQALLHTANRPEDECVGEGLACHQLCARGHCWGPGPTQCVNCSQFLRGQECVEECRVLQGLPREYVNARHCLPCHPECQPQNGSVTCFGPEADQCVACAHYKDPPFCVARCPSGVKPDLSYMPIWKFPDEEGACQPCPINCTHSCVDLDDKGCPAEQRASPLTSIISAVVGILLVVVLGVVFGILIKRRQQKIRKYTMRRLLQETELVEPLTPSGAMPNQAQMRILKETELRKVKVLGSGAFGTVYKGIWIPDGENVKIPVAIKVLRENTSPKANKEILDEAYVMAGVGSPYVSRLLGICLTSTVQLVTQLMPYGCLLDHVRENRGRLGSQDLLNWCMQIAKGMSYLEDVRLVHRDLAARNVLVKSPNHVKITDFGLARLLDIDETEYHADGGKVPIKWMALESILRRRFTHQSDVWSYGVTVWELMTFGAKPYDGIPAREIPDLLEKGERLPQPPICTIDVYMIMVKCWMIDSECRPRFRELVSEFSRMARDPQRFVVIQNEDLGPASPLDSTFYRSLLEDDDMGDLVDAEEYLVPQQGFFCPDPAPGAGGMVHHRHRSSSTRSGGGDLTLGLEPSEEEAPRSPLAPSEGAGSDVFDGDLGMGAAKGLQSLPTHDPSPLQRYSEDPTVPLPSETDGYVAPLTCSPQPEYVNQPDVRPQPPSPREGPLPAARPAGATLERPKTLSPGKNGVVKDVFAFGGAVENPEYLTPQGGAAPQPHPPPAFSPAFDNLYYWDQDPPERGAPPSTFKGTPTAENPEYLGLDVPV

T2 sequence (Q13547 whole entry): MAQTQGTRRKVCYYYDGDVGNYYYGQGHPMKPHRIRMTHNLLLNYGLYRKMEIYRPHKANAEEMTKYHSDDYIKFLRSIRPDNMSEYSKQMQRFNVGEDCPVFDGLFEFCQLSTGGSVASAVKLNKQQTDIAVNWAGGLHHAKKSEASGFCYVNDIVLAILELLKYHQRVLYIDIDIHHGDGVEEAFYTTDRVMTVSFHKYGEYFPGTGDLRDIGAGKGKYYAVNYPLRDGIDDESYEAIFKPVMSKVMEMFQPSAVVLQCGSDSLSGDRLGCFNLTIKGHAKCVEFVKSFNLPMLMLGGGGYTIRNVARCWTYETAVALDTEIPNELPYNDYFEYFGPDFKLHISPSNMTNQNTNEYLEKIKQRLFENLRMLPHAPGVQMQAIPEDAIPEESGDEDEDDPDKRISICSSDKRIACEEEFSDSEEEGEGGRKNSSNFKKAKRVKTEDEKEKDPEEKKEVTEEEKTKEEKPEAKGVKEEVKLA
Sequence of Histone deacetylase 3 (O15379 whole entry): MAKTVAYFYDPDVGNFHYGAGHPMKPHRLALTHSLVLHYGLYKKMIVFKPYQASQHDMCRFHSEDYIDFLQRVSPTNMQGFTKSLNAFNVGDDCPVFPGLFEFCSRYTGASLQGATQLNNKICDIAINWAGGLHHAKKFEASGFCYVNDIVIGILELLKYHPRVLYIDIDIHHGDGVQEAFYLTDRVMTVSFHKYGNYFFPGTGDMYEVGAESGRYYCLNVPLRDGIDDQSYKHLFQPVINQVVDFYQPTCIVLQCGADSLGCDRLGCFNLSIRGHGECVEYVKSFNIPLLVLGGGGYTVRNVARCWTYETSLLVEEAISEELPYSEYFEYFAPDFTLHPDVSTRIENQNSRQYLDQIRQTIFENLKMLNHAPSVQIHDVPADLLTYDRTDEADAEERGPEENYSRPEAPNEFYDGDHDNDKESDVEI
T3 sequence (P00533 whole entry): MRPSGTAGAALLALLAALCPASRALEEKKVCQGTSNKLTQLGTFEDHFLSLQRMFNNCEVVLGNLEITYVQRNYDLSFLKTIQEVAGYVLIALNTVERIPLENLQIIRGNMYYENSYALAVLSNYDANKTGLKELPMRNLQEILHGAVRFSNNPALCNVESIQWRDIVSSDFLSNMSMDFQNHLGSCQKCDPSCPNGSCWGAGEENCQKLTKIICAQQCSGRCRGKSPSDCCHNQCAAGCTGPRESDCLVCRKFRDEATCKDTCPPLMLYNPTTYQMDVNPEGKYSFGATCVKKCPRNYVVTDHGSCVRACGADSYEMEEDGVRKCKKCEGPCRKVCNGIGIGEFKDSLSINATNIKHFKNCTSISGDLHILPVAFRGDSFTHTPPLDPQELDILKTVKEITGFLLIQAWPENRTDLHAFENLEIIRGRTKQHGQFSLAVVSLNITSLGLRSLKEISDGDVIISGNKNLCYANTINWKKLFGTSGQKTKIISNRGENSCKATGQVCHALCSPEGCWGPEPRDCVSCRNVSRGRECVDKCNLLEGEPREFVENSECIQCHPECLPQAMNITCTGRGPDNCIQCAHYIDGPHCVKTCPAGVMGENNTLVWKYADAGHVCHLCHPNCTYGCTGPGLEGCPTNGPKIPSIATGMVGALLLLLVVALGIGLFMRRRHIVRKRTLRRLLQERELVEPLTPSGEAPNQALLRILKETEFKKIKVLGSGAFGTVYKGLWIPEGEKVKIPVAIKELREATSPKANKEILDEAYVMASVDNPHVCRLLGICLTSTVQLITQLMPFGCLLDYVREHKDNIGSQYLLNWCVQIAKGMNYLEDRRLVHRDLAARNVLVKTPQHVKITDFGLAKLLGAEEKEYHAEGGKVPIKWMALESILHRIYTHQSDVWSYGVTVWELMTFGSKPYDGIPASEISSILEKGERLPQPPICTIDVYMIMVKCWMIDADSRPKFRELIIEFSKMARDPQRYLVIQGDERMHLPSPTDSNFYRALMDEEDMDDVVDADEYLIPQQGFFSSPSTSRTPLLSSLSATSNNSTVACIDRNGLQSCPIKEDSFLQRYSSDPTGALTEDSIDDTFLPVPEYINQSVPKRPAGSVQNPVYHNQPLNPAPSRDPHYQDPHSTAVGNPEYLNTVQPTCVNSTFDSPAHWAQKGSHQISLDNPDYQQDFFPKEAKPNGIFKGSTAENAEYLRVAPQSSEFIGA
Sequence of Histone deacetylase 11 (Q96DB2 whole entry): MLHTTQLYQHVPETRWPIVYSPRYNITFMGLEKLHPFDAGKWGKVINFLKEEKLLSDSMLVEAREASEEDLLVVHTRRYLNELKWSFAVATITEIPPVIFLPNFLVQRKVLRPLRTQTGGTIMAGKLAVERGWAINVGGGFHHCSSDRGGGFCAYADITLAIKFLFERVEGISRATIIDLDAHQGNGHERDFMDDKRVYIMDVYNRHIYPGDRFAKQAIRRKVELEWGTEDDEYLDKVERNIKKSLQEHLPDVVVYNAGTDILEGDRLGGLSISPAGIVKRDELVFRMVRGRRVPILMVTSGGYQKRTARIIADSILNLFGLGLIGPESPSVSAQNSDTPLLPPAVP
Sequence of Cyclin-dependent kinase 4 (P11802 whole entry): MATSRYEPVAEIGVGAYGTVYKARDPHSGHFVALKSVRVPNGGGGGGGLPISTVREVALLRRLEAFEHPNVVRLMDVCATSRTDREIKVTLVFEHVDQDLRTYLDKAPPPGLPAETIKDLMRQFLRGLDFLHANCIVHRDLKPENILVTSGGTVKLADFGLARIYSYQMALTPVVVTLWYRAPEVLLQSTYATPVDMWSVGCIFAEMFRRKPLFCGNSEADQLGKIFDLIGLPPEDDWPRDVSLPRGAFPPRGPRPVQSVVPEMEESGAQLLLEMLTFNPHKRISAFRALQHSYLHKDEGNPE
Sequence of Histone deacetylase 8 (Q9BY41 whole entry): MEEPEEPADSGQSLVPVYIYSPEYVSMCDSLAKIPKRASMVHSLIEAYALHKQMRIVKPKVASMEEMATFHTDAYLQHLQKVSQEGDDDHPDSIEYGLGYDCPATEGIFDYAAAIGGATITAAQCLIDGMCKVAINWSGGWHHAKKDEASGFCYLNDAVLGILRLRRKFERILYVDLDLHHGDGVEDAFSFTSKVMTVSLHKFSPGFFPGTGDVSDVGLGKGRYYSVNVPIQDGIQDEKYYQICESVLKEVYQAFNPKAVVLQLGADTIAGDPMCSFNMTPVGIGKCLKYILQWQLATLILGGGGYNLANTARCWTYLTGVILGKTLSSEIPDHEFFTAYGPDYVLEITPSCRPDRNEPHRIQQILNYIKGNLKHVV
Sequence of Histone deacetylase 2 (Q92769 whole entry): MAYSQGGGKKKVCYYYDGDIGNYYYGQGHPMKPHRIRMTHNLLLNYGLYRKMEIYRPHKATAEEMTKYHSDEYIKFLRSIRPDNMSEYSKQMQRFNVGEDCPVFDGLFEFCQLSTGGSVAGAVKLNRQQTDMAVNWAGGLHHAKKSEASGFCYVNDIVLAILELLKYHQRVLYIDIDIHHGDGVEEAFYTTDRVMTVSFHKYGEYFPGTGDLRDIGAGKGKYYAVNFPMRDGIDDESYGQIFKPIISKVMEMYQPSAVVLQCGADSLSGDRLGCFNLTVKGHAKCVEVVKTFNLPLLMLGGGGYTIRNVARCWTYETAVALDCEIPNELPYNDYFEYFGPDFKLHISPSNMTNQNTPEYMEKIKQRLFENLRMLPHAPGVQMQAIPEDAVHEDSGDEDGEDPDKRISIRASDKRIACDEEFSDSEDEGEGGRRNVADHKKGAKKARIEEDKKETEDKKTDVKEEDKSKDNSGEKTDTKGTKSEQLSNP

Question: For `Cc1ccc(NCc2ccc(C(=O)Nc3ccccc3N)cc2)cc1Nc1nccc(-c2cccnc2)n1`, which IC50 [1] is on record?
Answer: Its IC50 is 2700 nM.

Question: And the IC50 [2]?
Answer: The IC50 was ≥ 32000 nM.

Question: Which IC50 [3] does the source give for `CC1(C)C(=O)N(c2ccc(C#N)c(C(F)(F)F)c2)C(=O)N1CCCCCCc1cn(CCCCCCC(=O)NO)nn1` here?
Answer: The IC50 was > 20000 nM.

Question: And the IC50 (RWPE-1)?
Answer: The IC50 was 12100 nM.

Question: What about the IC50 (MDA-MB-231) of the same compound?
Answer: The IC50 was > 20000 nM.

Question: What about the IC50 (PC-3) of the same compound?
Answer: Its IC50 is 15700 nM.

Question: What about the IC50 (MCF7 [4]) of the same compound?
Answer: The IC50 was 14600 nM.

Question: For `Nc1ccccc1NC(=O)c1ccc(CCCC(=O)Nc2ccc(C3CC3N)cc2)cc1` (stereo not given), which IC50 [5] is on record?
Answer: Its IC50 is 200 nM.

Question: Which IC50 (Tubulin) does the source give for `C[C@H]1COc2c(N3CCN(C)CC3)c(F)cc3c(=O)c(C(=O)NCc4cn(CCCCCC(=O)NO)nn4)cn1c23` here?
Answer: The IC50 was 2020 nM.

Question: And the IC50 (Histone deacetylase 2)?
Answer: The IC50 was 850 nM.

Question: What does the source list for `Cn1cc(-c2ccnc(Nc3ccc(NC(=O)CCCCCCC(=O)NO)cc3)n2)c2ccccc21`?
Answer: IC50 (Histone deacetylase 1 [6]): 105 nM; inhibition [7]: 44%; IC50 [8]: 3200 nM; IC50 [9]: 1200 nM

Question: For `O=C(CCn1cc(CCn2nnc3c(Br)c(Br)c(Br)c(Br)c32)nn1)NO`, which IC50 (MCF7 [10]) is on record?
Answer: Its IC50 is 17300 nM.

Question: What about the CC50 (HEK-293T) of the same compound?
Answer: Its CC50 is 13500 nM.

Question: And the inhibition (Histone deacetylase 1 [11])?
Answer: The inhibition was 90%.

Question: What about the CC50 (HaCaT) of the same compound?
Answer: Its CC50 is 13500 nM.

Question: What about the CC50 (Jurkat) of the same compound?
Answer: Its CC50 is 13500 nM.

Question: And the CC50 (L1210)?
Answer: The CC50 was 13500 nM.

Question: For `O=C(CCCCCOc1no[n+]([O-])c1S(=O)(=O)c1ccccc1)NO`, which IC50 (Histone deacetylase 11) is on record?
Answer: Its IC50 is 608 nM.

Question: And the IC50 (Histone deacetylase 8)?
Answer: Its IC50 is 343 nM.

Question: And the IC50 [2]?
Answer: Its IC50 is 7400 nM.

Question: What about the IC50 (Histone deacetylase 3) of the same compound?
Answer: Its IC50 is 532 nM.

Question: With `Cc1nc2c(F)cc(-c3nc(Nc4ccc(CNC(=O)CC(=O)NO)cc4)ncc3F)cc2n1C(C)C` as the compound, how does the IC50 [12] read?
Answer: The IC50 was 73 nM.

Question: What about the IC50 (Histone deacetylase 1 [13]) of the same compound?
Answer: Its IC50 is 26 nM.

Question: What about the IC50 [14] of the same compound?
Answer: Its IC50 is 1.2 nM.

Question: And the IC50 [15]?
Answer: Its IC50 is 18.3 nM.

Question: What about the IC50 [2] of the same compound?
Answer: Its IC50 is 5.9 nM.

Question: What about the IC50 [16] of the same compound?
Answer: Its IC50 is 18.3 nM.

Question: And the IC50 (Histone deacetylase 3)?
Answer: Its IC50 is 56 nM.

Question: For `Cc1sc2c(c1C)C(c1ccc(Cl)cc1)=N[C@@H](CC(=O)Nc1ccc(C(=O)NO)cc1)c1nnc(C)n1-2`, which inhibition in vivo at 20 mg/kg (CAPAN-1) is on record?
Answer: The inhibition in vivo at 20 mg/kg was 87.7%.

Question: What does the source list for `C#Cc1cccc(Nc2ncnc3ccc(S(=O)(=O)n4ccc(/C=C/C(=O)Nc5ccccc5N)c4)cc23)c1`?
Answer: IC50 [17]: 78 nM; IC50 (Histone deacetylase 1 [13]): 41 nM; IC50 [18]: 66 nM
